{"source": "patent US6682732B1", "about": "“Treatment of lesions” (The University of Bath, priority 1998, dated 2004)", "key": {"[1]": {"system": "Staphylococcus aureus 6751", "assay": "Bacterial growth rate by optical density, 96 well plate (Tests 6(d), 6(e))", "assay_type": "cell-based", "protocol": "(§1) Bacteria were seeded into nutrient broth (NB) and grown over night at 37° C. The culture was then counted and normalised to give a final cell concentration of 1.8×10^7 cells well^−1 into the wells of a 96 well plate in fresh nutrient broth. The optical density of each well was monitored every 15 minutes as a measure of the growth rate of each bacterial species. Growth curves were generated for each species and the maximal rate of growth (logarithmic phase) was measured. Cells were treated to a range of experimental conditions in which the growth rate of cells was related to a control of untreated cells. The results were expressed as a percentage of the growth rate of the control cells.\n(§2) (i) At a fixed concentration of hypoxanthine (100 μM) a range of purified XO protein concentrations were added at time 0 minutes. The optical density was followed and the growth rate calculated.\n(§3) (ii) The growth rate was also measured in relation to the concentration of hypoxanthine, using 30 μg of XO with cells seeded as described above."}, "[2]": {"system": "Lactobacillus casei 6375", "assay": "Bacterial growth rate by optical density, 96 well plate (Tests 6(d), 6(e))", "assay_type": "cell-based", "conditions": "highest concentration", "protocol": "as §1, §2, §3"}, "[3]": {"system": "Escherichia coli NCTC 86", "assay": "Peroxynitrite effect on cell viability, colony count (Test 6(a))", "assay_type": "cell-based", "conditions": "E. coli; 100 μM to 0.01 μM; FIG. 1", "protocol": "(§4) To obtain cells used in this test, the infective bacterial strain Escherichia coli NCTC 86 (E.coli) was cultured on nutrient agar at 37° until colony formation occurred, usually overnight. This stock culture was used for subsequent experiments including sub-culturing in nutrient broth and plated onto agar weekly. Experimental cultures of E.coli were set up overnight in nutrient broth from single colonies on an agar plate. Cells were harvested and counted using a standard curve of known absorbance at 470 nm against viable cell count. Peroxynitrite was generated by the method of Crow et al BIOCHEM. 34 pages 3544 to 3552 (1995). In accordance with that method, a mixture of sodium nitrite and hydrogen peroxide was reacted under acid conditions then immediately quenched by the addition of sodium hydroxide. The concentration of ONOO^− formed was measured using an absorption coefficient of 1670 M^−1 cm^−1 in a spectrophotometer at a wavelength of 303 nm. Solutions of different concentrations for use in (a) below were obtained by dilution of the product solution using PBS.\nCells cultured as described above were diluted to suitable working concentrations (10^4-10^5 Cells Ml^−1) in sterile phosphate buffered saline (PBS). […] Viable cells formed colonies on the agar and were counted. […]"}, "[4]": {"system": "S. enteritidis", "assay": "Peroxynitrite effect on cell viability, colony count (Test 6(a))", "assay_type": "cell-based", "protocol": "Cells cultured as described above were diluted to suitable working concentrations (10^4-10^5 Cells Ml^−1) in sterile phosphate buffered saline (PBS). ONOO^− at a range of concentrations from 100 μM to 0.01 μM was added as a bolus dose to cells and incubated at room temperature for ten minutes. Aliquots were taken from the cell cultures and plated on to nutrient agar and incubated in a warm room at 37° C. overnight. Viable cells formed colonies on the agar and were counted. The number of colonies formed was related to an untreated control and a graph of the results is shown in FIG. 1, which illustrates the effect of ONOO^− on cell viability."}, "[5]": {"system": "E. coli", "assay": "Effect of peroxynitrite scavenger on bacterial growth, growth curves by absorbance (Test 6(c))", "assay_type": "cell-based", "protocol": "E. coli were seeded into nutrient broth at 2.10^7 cell ml^−1 and incubated at 37° C. under atmospheric air conditions (that is, 21% oxygen saturation). Four separate test samples of volume 1 ml were prepared by addition at 1 hour of incubation as follows:\n1 Peroxynitrite at concentration 100 μM.\n2 Peroxynitrite at 100 μM and quercetin (peroxynitrite scavenger) at 100 μμM.\n3 Xanthine oxidase (53.2 μg) and xanthine at 100 μM.\n4 Xanthine oxidase (53.2 μg) and NADH at 100 μM.\nCorresponding controls were also prepared, and the growth curves generated over time determined by monitoring absorbance."}, "[6]": {"system": "Straphylococcu aureus", "assay": "Incubation of Gram positive bacteria with SIN-1, growth", "assay_type": "cell-based"}, "[7]": {"assay": "Nitric oxide release from pure bovine xanthine oxidase with NADH and nitrite under hypoxic conditions (ozone chemiluminescence, Tests 1-3)", "assay_type": "biochemical", "protocol": "The production of nitric oxide in the following tests and examples was analysed using an ozone chemiluminescence assay in a continuous flow apparatus (Sievers NOA 280) that allows the real time analysis of NO production. The apparatus was modified to allow a constant stream of nitrogen to flow into the reaction chamber. Chemiluminescence data were collected by a data acquisition system; the mean NO produced in parts per billion (ppb) was calculated from readings taken every second and shown as NO ppb/s. Progress curves, of molar production of NO against time, were calculated by taking into account the gas flow and successively integrating the ppb/s curves. […]\n(d) Samples of NO were taken from the reaction cell by a needle that was connected to a Sievers Nitric Oxide Analyser (NOA-280 ) and the results were recorded for analysis using a computer.\n(e) At time (t) 0 minutes, the NOA-280 started the measurement of NO from the reaction cell. At t=1 minute, the contents of the “substrates” bijou were injected into the reaction cell using a 1 ml syringe and the background NO was measured.\n(f) At t=5 minutes, the contents of the “milk” bijou were injected into the reaction cell using a 1 ml syringe and the release of NO was monitored for a further 20 minutes. […]"}, "[8]": {"system": "E.coli", "assay": "Effect of xanthine oxidase derived species on cell viability at a range of oxygen concentrations (Test 6(b))", "assay_type": "cell-based, Escherichia coli", "conditions": "XO, NADH, NaNO2 system", "protocol": "as §4, with “Solutions of different concentrations for use in (a) below were obtained by dilution of the product solution using PBS.” left out\nE.coli were cultured as described above. […] Desired oxygen concentrations were generated by delivery of a mixture of oxygen and nitrogen in appropriate proportions and determined using a Clark type O2 electrode. […] Viable cells formed colonies on the agar and were counted. Viable cell counts were performed in triplicate and the results expressed as a percentage viable count in each case related to a non enzyme control of the same oxygen concentration. […]"}, "[9]": {"system": "S. enteritidis", "assay": "Effect of xanthine oxidase derived species on cell viability at a range of oxygen concentrations (Test 6(b))", "assay_type": "cell-based", "conditions": "XO, NADH, NaNO2 system", "protocol": "Aliquots were taken and incubated with a reaction system consisting of bovine Xanthine oxidase (XO) (53.2 μgml^−1), nicotinamide adenine dinucleotide in reduced form (NADH) (300 μM), sodium nitrite, (NaNO2) 1 mM and oxygen at a range of concentrations. […] This reaction was followed at 37° C. for 30 min with mixing before an aliquot was taken and plated onto agar and incubated in a warm room at 37° C. Viable cells formed colonies on the agar and were counted. Viable cell counts were performed in triplicate and the results expressed as a percentage viable count in each case related to a non enzyme control of the same oxygen concentration. […] The range of oxygen tensions used covers those in which XO has previously been considered to be active, namely superoxide generation (21% O2 saturation) and nitric oxide production (0% O2 saturation)."}}, "data": [{"compound": "OO", "note": "[H2O2, hydrogen peroxide]", "values": [{"measurement": "growth inhibition in the presence of H2O2", "setting": "[1]; S. aureus, concentration ranges used", "result": "very limited"}]}, {"compound": "O=c1[nH]c(=O)c2c[nH]nc2[nH]1", "note": "[Oxypurinol]", "values": [{"measurement": "effect on growth rate when added alone", "setting": "[2]", "result": "no effect on growth rate"}]}, {"compound": "O=NOO", "note": "[Peroxynitrite]", "values": [{"measurement": "effect on cell viability (viable count)", "setting": "[3]", "result": "profound inhibitory effect"}, {"measurement": "effect on viability", "setting": "[4]", "result": "reduce viability"}, {"measurement": "killing (growth curves)", "setting": "[5]; sample (1): peroxynitrite 100 μM added at 1 hour, 21% oxygen saturation", "result": "strong killing"}]}, {"compound": "N=c1c[n+](N2CCOCC2)[n-]o1", "note": "[SIN-1, 3-morpholinosydnonimine]", "values": [{"measurement": "growth on incubation with SIN-1", "setting": "[6]", "result": "reduced growth in dependence on the amount of added SIN-1"}]}, {"compound": "O=c1c(O)c(-c2ccc(O)c(O)c2)oc2cc(O)cc(O)c12", "note": "[quercetin]", "values": [{"measurement": "effect of scavenger on peroxynitrite killing", "setting": "[5]; sample (2): peroxynitrite 100 μM and quercetin 100 μμM", "result": "clear effect in reducing killing"}]}, {"compound": "XOR: Bovine xanthine oxidase (XOR), Biozyme, Blaenavon, UK; 10.7 mg/ml, batch 104AX", "values": [{"measurement": "optimum pH for the production of NO from XOR", "setting": "[7]", "result": "~5.5", "unit": "pH"}, {"measurement": "killing at oxygen concentrations of about 21%", "setting": "[8]", "result": "about 5%"}, {"measurement": "killing at oxygen concentrations of about 21%", "setting": "[9]", "result": "about 10%"}, {"measurement": "growth inhibition by XO", "setting": "[1]; hypoxanthine 100 μM, compared with Lactobacillus, FIG. 3", "result": "less marked growth inhibition"}]}]}
